In US20110178024A1, “AMYLOID BETA-PEPTIDES AND METHODS OF USE THEREOF” (Ben Gurion University of the Negev Research and Development …, priority 2008, published 2011):
“Also recorded” adds a separate entry of the source.

How the values were obtained:
[1] = tested on: Aβ-reactive T-cell line 1 (DRB1 1501/1502); test: Human T-cell line proliferation assay, T-cell line 1; format: cell-based; conditions: for T-cell proliferation ([3H]thymidine incorporation), in words: T-cell line 1, autologous PBMCs
Method: (§1) PBMCs were isolated from the freshly drawn heparinized whole blood of each study participant (N=133) by Ficoll-Paque (Amersham Pharmacia Biotech, Uppsala, Sweden) gradient centrifugation, according to the manufacturer's instructions. Cells were cultured in 30 wells of 96-well round-bottom plates at 2×10^5 cells/well in RPMI medium (containing 2.5% nonautologous serum, 4 mM L-glutamine, 10 mM HEPES, 1 mM sodium pyruvate, and 10 mM nonessential amino acids) in the presence of pure human Aβ1-42 peptide. On the 5th day of culture, 10 U/ml of recombinant human interleukin (IL)-2 was added by replacing half of the medium with IL-2-containing medium. On day 7 the medium was replaced with IL-2-free medium. On day 10, half of the cells from each well were restimulated with irradiated autologous PBMCs in the presence or absence of 5 μg/ml Aβ for 48 hours and then pulsed with [3H] thymidine for 12 hours. Cells w then harvested, their radioactivity measured (in cpm), and the stimulation index (SI; (cpm in the presence of Aβ divided by cpm in the absence of Aβ) determined. Positive wells (SI≧2.5 and Δcpm of at least 2000) obtained in the split-well assay were restimulated, 14 days after their primary stimulation, in the presence of irradiated (7000 R) autologous PBMCs (2×10^5 cells/well) and Aβ1-42. T-cell lines were then supplemented with IL-2 (10 U/ml) after 48 hours and every 2 days thereafter until they reached a resting state.
(§2) Antigen (Ag)-specific proliferative responses were measured by culturing the contents of positive wells from the split-well assay with irradiated PBMCs (2×10^5/well) at 37° C. in duplicate wells in 96-well U-bottom microtiter plates in a final volume of 200 μl of culture medium alone or culture medium containing serially diluted nested Aβ peptides. After 48 hours, 1 μCi of [3H]thymidine (Amersham, Arlington Heights, Ill.) was added to each well in 50 μl of culture medium. The cells were harvested 16 hours later onto fiberglass filters with a cell harvester (Packard, Filtermate 196), and [3H]thymidine incorporation was determined with a Packard Matrix 96 direct counter.

[2] = tested on: splenocyte-derived T cells of HLA-DR15 humanized mice; test: Proliferation assay of mouse-derived T cells, Aβ-immunized DR15 humanized mice; format: cell-based; conditions: for T-cell proliferation, in words: mice bearing the DRB1*1501 allele
Method: (§3) Mice were immunized by subcutaneous injection of Aβ 1-42 ([…]) emulsified in complete Freund's Adjuvant (CFA) H37Ra (Difco, Detroit, Mich., USA) or in incomplete Freund's Adjuvant (IFA; Sigma, Israel), as indicated in Figure legends. When indicated, pertussis toxin (PTX) (List Biological Laboratories, Campbell, Calif., USA) was injected intravenously (200 ng/mouse) on day 0 and again 48 hours later.
(§4) Popliteal lymph nodes or spleens of immunized mice were harvested and cultured (5×10^6 cells/ml) in U-shaped 96-well-plate culture dishes in DMEM containing 10% fetal calf serum, 10 mM HEPES, 1 mM sodium pyruvate, 10 mM nonessential amino acids, 1% Pen/Strep, and […] b-mercaptoethanol. After 72 hours, 3[H]thymidine ([…]) was added. Cells were harvested after 12 hours, and their radioactivity was measured.

[3] = tested on: Aβ-reactive T-cell line 2 (DRB1 1301/0401); test: Human T-cell line proliferation assay, T-cell line 2; format: cell-based; conditions: T-cell line 2, autologous PBMCs
Method: as §1, §2

[4] = tested on: Aβ-reactive T-cell lines; test: Epitope specificity and HLA-DR allele restriction of Aβ-reactive T-cell lines; format: cell-based, human; conditions: autologous and semi-autologous PBMCs as antigen-presenting cells
Method: as §1, §2
High-resolution HLA typing of PBMCs of the human subjects was carried out at the Brigham and Women's Hospital Clinical Laboratory using the PCR/RFLP method. Genomic DNA was extracted from whole blood or frozen cells. DNA was amplified using locus-specific and group-specific primers for DNA class II loci. DNA fragments were detected using agarose gel electrophoresis and subjected to restriction enzyme digestion, as recommended by the 10th International Histocompatibility Workshop (http://www.ihwg.org/components/ssopr.htm). The DNA fragments were then separated by agarose gel electrophoresis and the specific HLA-DR alleles were analyzed visually.
To identify the HLA-DR alleles that play a role in Aβ immunogenicity, Aβ-reactive T-cell lines were generated from the PBMCs of human subjects as described in Materials and Methods. These T cells were then restimulated with autologous or semi-autologous PBMCs (nonautologous PBMCs bearing one of the autologous DRB1 alleles) to determine their epitope specificity and identify their dominant epitope-presenting HLA-DR alleles. Overall, the PBMCs of 89 of the 133 individuals analyzed in this study yielded positive Aβ-reactive T-cell responses in the split-well assay as described in Materials and Methods and our previous publication ((2003). J Clin Invest 112:415-422). From these 89 PBMC samples, 39 Aβ-reactive T-cell lines were successfully generated and were analyzed for epitope specificity and HLA-DR allele restriction, as shown in FIG. 1. Table 2 lists the HLA-DR alleles whose expression by PBMCs was essential for proliferation of the Aβ-specific T-cell lines. The table also records the frequency of the HLA-DR alleles in our study population and lists the Aβ peptides harboring the dominant T-cell epitopes. […]

[5] = tested on: splenocyte-derived T cells of HLA-DR4 humanized mice; test: Proliferation assay of mouse-derived T cells, Aβ-immunized DR4 humanized mice; format: cell-based; conditions: mice bearing the DR4 allele
Method: as §3, §4

[6] = target: HLA-DR4 (DRB1*0401) (human); test: cell-based or functional assay
[7] = target: HLA-DR15 (DRB1*1501) (human); test: cell-based or functional assay

For “Aβ1-28: N-terminal fragment of Aβ, residues 1-28; nested overlapping Aβ peptide”, the “T-cell proliferation ([3H]thymidine incorporation), in words” value [1] was “only mild T-cell proliferation” and the “T-cell proliferation, in words” value [2] was “only a mild T-cell response”.

With “Aβ19-33: nested overlapping Aβ peptide, residues 19-33 (FFAEDVGSNKGAIIG)” the “T-cell proliferation ([3H]thymidine incorporation), in words” value [3] was “Substantially lower T-cell proliferation”.

“Aβ25-42: T-cell-stimulatory Aβ peptides between Aβ residues 25 and 42 (GSNKGAIIGLMVGGVVIA; Amyloid-beta protein 42; UniProt P05067 696-713, looked up, fragment)” was tested, and the “DRB1 allele with which the T-cell-stimulatory Aβ peptide stimulates Aβ-reactive T-cell lines” value (from here on “DRB1 allele”) [4] was “DRB1*1501”.

For GSNKGAIIGLMVGGV [Aβ25-39], the “SI (stimulation index), T-cell proliferation” value ([1]; T-cell line 1, 5 μg peptide/ml, irradiated autologous PBMCs, 72 hours) was 17.3, the “T-cell proliferation ([3H]thymidine incorporation), in words” value [1] was “specifically stimulated” and the “SI (stimulation index), T-cell proliferation” value ([2]; DR15 mice, 10 μg/ml, 72 hours) was 8.8.

For “KLVFFAEDVGSNKGA (listed as Homo sapiens) [Aβ16-30]”, the “T-cell proliferation ([3H]thymidine incorporation), in words” value [3] was “stimulated”.

In the case of “LVFFAEDVGSNKGAI (listed as Homo sapiens) [Aβ17-31]”, the “DRB1 allele” value [4] is reported as “DRB1*1301” and the “T-cell proliferation ([3H]thymidine incorporation), in words” value [3] is reported as “stimulated”.

“QKLVFFAEDVGSNKG (listed as Homo sapiens) [Aβ15-29]” was tested, and the “DRB1 allele” value [4] was “DRB1*1001”.

In the case of “QKLVFFAEDVGSNKGAIIGL (listed as Homo sapiens) [Aβ15-34]”, the “DRB1 allele” value [4] is reported as “DRB1*0101” and the “T-cell proliferation ([3H]thymidine incorporation), in words” value [3] is reported as “stimulated”.

With “QKLVFFAEDVGSNKGAIIGLMVGGVVIA (listed as Homo sapiens) [Aβ15-42]” the “T-cell proliferation ([3H]thymidine incorporation), in words” value [1] was “triggered”, the “T-cell proliferation, in words” value [2] was “strong T-cell proliferation” and the “T-cell proliferation, in words” value [5] was “induced”. The “DRB1 allele” value [4] was “DRB1*1502; also recorded: DRB1*0301” and the “T-cell proliferation ([3H]thymidine incorporation), in words” value [3] was “triggered”.

In the case of “VFFAEDVGSNKGAII (listed as Homo sapiens) [Aβ18-32]”, the “DRB1 allele” value [4] is reported as “DRB1*0404; also recorded: DRB1*0401” and the “T-cell proliferation ([3H]thymidine incorporation), in words” value [3] is reported as “stimulated”.

In the case of LVFFAEDVGSNKGAI [Aβ17-31 peptide], the “T-cell line 2 proliferation, SI at 5 µg peptide/ml” value (“T-cell line 2 proliferation, SI” below) [6] is reported as 6.2 SI and the “T-cell proliferation of splenocytes of Aβ-immunized DR4 mice, SI at 10 µg/ml” value [6] is reported as 6.1 SI.

GSNKGAIIGLMVGGV [Aβ25-39 peptide] was tested, and the “T-cell line 1 proliferation, SI at 5 µg peptide/ml” value (“T-cell line 1 proliferation, SI” for short) [7] was 17.3 SI and the “T-cell proliferation of splenocytes of Aβ-immunized DR15 mice, SI at 10 µg/ml” value [7] was 8.8 SI.

With EDVGSNKGAIIGLMV [Aβ22-36 peptide] the “T-cell line 1 proliferation, SI” value [7] was 10.2 SI.

With KLVFFAEDVGSNKGA [Aβ16-30 peptide] the “T-cell line 2 proliferation, SI” value [6] was 6.4 SI and the “T-cell proliferation of splenocytes of Aβ-immunized DR4 mice, SI at 10 µg/ml” value [6] was 5.9 SI.

With KGAIIGLMVGGVVIA [Aβ28-42 peptide] the “T-cell line 1 proliferation, SI” value [7] was 12.6 SI and the “T-cell proliferation of splenocytes of Aβ-immunized DR15 mice, SI at 10 µg/ml” value [7] was 12.2 SI.

In the case of QKLVFFAEDVGSNKGAIIGLMVGGVVIA [Aβ15-42 peptide], the “T-cell line 1 proliferation, SI” value [7] is reported as 15.8 SI, the “T-cell proliferation of splenocytes of Aβ-immunized DR15 mice, SI at 10 µg/ml” value [7] is reported as 14.2 SI and the “T-cell line 2 proliferation, SI” value [6] is reported as 7.8 SI. For the same molecule, the “T-cell proliferation of splenocytes of Aβ-immunized DR4 mice, SI at 10 µg/ml” value [6] was 3.7 SI.

VFFAEDVGSNKGAII [Aβ18-32 peptide] was tested, and the “T-cell line 2 proliferation, SI” value [6] was 6.1 SI and the “T-cell proliferation of splenocytes of Aβ-immunized DR4 mice, SI at 10 µg/ml” value [6] was 9.2 SI.
